Results as given in paper PMC7126937 (Bioorganic & Medicinal Chemistry, 2014).
Several values for one entry are separate records, joined by “and”; a condition that tells them apart may be missing. Identical values can stand only once.

tested on: influenza virus A/California/7/09 (H1N1)pdm09; format: cell-based, influenza virus A/California/07/09 (H1N1)pdm09

`NC12CC3CC(CC(C3)C1)C2` [Amantadine, 1-aminoadamantane, reference compound] and `CC(N)C12CC3CC(CC(C3)C1)C2.Cl` (stereo not drawn) [Rimantadine, α-methyl-1-adamantylamine hydrochloride, reference compound] are within error of each other in “ED50 (50% effective concentration; the concentration leading to 50% inhibition of virus replication)” value: 64.2 ± 4.7 µM for the first, 67.0 ± 4.9 µM for the second.

First: CC1(C)C2CC[C@@]1(C)C(=O)C2 [Compound 1, (1R)-(+)-camphor, reference compound]
Second: CC1(C)[C@@H]2CC[C@@]1(C)/C(=N/CCC/N=C1\C[C@H]3CC[C@]1(C)C3(C)C)C2 [Compound 2a, N^1E,N^3E-N^1,N^3-bis((1R,2R,4R)-1,7,7-trimethylbicyclo[2.2.1]heptan-2-ylidene)propane-1,3-diamine]
The “ED50 (50% effective concentration; the concentration leading to 50% inhibition of virus replication)” value of the first is 180-fold higher: 1644.7 ± 144.4 µM for the first, 9.3 ± 0.8 µM for the second.

Going from `CC1(C)[C@@H]2CC[C@@]1(C)/C(=N/CCCCCC/N=C1\C[C@H]3CC[C@]1(C)C3(C)C)C2` [Compound 2b, N^1E,N^6E-N^1,N^6-bis((1R,2R,4R)-1,7,7-trimethylbicyclo[2.2.1]heptan-2-ylidene)hexane-1,6-diamine] to `CC1(C)[C@@H]2CC[C@@]1(C)/C(=N/CCCCCCC/N=C1\C[C@H]3CC[C@]1(C)C3(C)C)C2` [Compound 2c, N^1E,N^7E-N^1,N^7-bis((1R,2R,4R)-1,7,7-trimethylbicyclo[2.2.1]heptan-2-ylidene)heptane-1,7-diamine], the “ED50 (50% effective concentration; the concentration leading to 50% inhibition of virus replication)” value rises from 15.1 ± 1.1 µM to 22.8 ± 2.3 µM (1.5-fold).

Going from `CC1(C)[C@@H]2CC[C@@]1(C)/C(=N/CCCCCCCC/N=C1\C[C@H]3CC[C@]1(C)C3(C)C)C2` [Compound 2d, N^1E,N^8E-N^1,N^8-bis((1R,2R,4R)-1,7,7-trimethylbicyclo[2.2.1]heptan-2-ylidene)octane-1,8-diamine] to `CC1(C)[C@@H]2CC[C@@]1(C)/C(=N/CCCCCCCCCCCC/N=C1\C[C@H]3CC[C@]1(C)C3(C)C)C2` [Compound 2e, N^1E,N^12E-N^1,N^12-bis((1R,2R,4R)-1,7,7-trimethylbicyclo[2.2.1]heptan-2-ylidene)dodecane-1,12-diamine], the “ED50 (50% effective concentration; the concentration leading to 50% inhibition of virus replication)” value rises from 24.2 ± 2.1 µM to 45.0 ± 3.9 µM (1.9-fold).

`CC1(C)[C@@H]2CC[C@@]1(C)/C(=N/c1ccc(Cc3ccc(/N=C4\C[C@H]5CC[C@]4(C)C5(C)C)cc3)cc1)C2` [Compound 2f, (E)-N-((1R,2R,4R)-1,7,7-trimethylbicyclo[2.2.1]heptan-2-ylidene)-4-(4-((E)-((1R,2R,4R)-1,7,7-trimethylbicyclo[2.2.1]heptan-2-ylidene)amino)benzyl)aniline] and `CC1(C)[C@@H]2CC[C@@]1(C)/C(=N/c1ccc(Oc3ccc(/N=C4\C[C@H]5CC[C@]4(C)C5(C)C)cc3)cc1)C2` [Compound 2g, (E)-N-((1R,2R,4R)-1,7,7-trimethylbicyclo[2.2.1]heptan-2-ylidene)-4-(4-((E)-((1R,2R,4R)-1,7,7-trimethylbicyclo[2.2.1]heptan-2-ylidene)amino)phenoxy)aniline] are within error of each other in “ED50 (50% effective concentration; the concentration leading to 50% inhibition of virus replication)” value: 351.4 ± 32.3 µM for the first, 373.4 ± 35.1 µM for the second.

First: CC1(C)[C@@H]2CC[C@@]1(C)[C@H](NCCCCCCCCCCCCN[C@@H]1C[C@H]3CC[C@]1(C)C3(C)C)C2 [Compound 3e, N^1,N^12-bis((1R,2R,4R)-1,7,7-trimethylbicyclo[2.2.1]heptan-2-yl)dodecane-1,12-diamine]
Second: CN(CCCCCCCN(C)[C@@H]1C[C@H]2CC[C@]1(C)C2(C)C)[C@@H]1C[C@H]2CC[C@]1(C)C2(C)C [Compound 4c, N^1,N^7-dimethyl-N^1,N^7-bis((1R,2R,4R)-1,7,7-trimethylbicyclo[2.2.1]heptan-2-yl)heptane-1,7-diamine]
The “ED50 (50% effective concentration; the concentration leading to 50% inhibition of virus replication)” value of the first is 9.2-fold lower: 4.4 ± 0.3 µM for the first, 40.4 ± 3.8 µM for the second.

`CC1(C)[C@@H]2CC[C@@]1(C)[C@H](Nc1ccc(Cc3ccc(N[C@@H]4C[C@H]5CC[C@]4(C)C5(C)C)cc3)cc1)C2` [Compound 3f, (1R,2R,4R)-1,7,7-trimethyl-N-(4-(4-((1R,2R,4R)-1,7,7-trimethylbicyclo[2.2.1]heptan-2-ylamino)benzyl)phenyl)bicyclo[2.2.1]heptan-2-amine] and `CC1(C)[C@@H]2CC[C@@]1(C)[C@H](Nc1ccc(Oc3ccc(N[C@@H]4C[C@H]5CC[C@]4(C)C5(C)C)cc3)cc1)C2` [Compound 3g, (1R,2R,4R)-1,7,7-trimethyl-N-(4-(4-((1R,2R,4R)-1,7,7-trimethylbicyclo[2.2.1]heptan-2-ylamino)phenoxy)phenyl)bicyclo[2.2.1]heptan-2-amine] are within 1.5-fold of each other in “ED50 (50% effective concentration; the concentration leading to 50% inhibition of virus replication)” value: 153.2 ± 11.9 µM for the first, 207.6 ± 19.5 µM for the second.

Compared with `CN(CCCCCCN(C)[C@@H]1C[C@H]2CC[C@]1(C)C2(C)C)[C@@H]1C[C@H]2CC[C@]1(C)C2(C)C` [Compound 4b, N^1,N^6-dimethyl-N^1,N^6-bis((1R,2R,4R)-1,7,7-trimethylbicyclo[2.2.1]heptan-2-yl) hexane-1,6-diamine], `CC1(C)[C@@H]2CC[C@@]1(C)/C(=N/c1ccc(Cc3ccc(N)cc3)cc1)C2` [Compound 5f, (E)-4-(4-aminobenzyl)-N-((1R,2R,4R)-1,7,7-trimethylbicyclo[2.2.1]heptan-2-ylidene)aniline] is 7.3-fold lower in “ED50 (50% effective concentration; the concentration leading to 50% inhibition of virus replication)” value: 110.1 ± 10.4 µM for the first, 15.0 ± 1.2 µM for the second.

For `CC1(C)[C@@H]2CC[C@@]1(C)/C(=N/c1ccc(Oc3ccc(N)cc3)cc1)C2` [Compound 5g, (E)-4-(4-aminophenoxy)-N-((1R,2R,4R)-1,7,7-trimethylbicyclo[2.2.1]heptan-2-ylidene)aniline], the “ED50 (50% effective concentration; the concentration leading to 50% inhibition of virus replication)” value was 4.2 ± 0.0 µM.

In the case of `CC1(C)[C@@H]2CC[C@@]1(C)[C@H](NCCCCCCN[C@@H]1C[C@H]3CC[C@]1(C)C3(C)C)C2` [Compound 3b, N^1,N^6-bis((1R,2R,4R)-1,7,7-trimethylbicyclo[2.2.1]heptan-2-yl)hexane-1,6-diamine], the “ED50 (50% effective concentration; the concentration leading to 50% inhibition of virus replication)” value is reported as 0.77 µM and 0.77 ± 0.1 µM.
With `CC1(C)[C@@H]2CC[C@@]1(C)[C@H](NCCCCCCCN[C@@H]1C[C@H]3CC[C@]1(C)C3(C)C)C2` [Compound 3c, N^1,N^7-bis((1R,2R,4R)-1,7,7-trimethylbicyclo[2.2.1]heptan-2-yl)heptane-1,7-diamine] the “ED50 (50% effective concentration; the concentration leading to 50% inhibition of virus replication)” value was 3.2 µM and 3.2 ± 0.2 µM.
